# Source: patent publication US20220273660A1, “MEK INHIBITOR FOR TREATMENT OF STROKE” (EDVINCE AB, priority 2019, published 2022)
# Entries after “also recorded” stand apart in the source; their conditions may differ.
# Test system: rat basilar arteries
# Experiment: 48 h organ culture of basilar artery, endothelium function / vasodilation (carbachol, SNP, CGRP)
# Assay type: cell-based
# Conditions: 1 μM inhibitor
# Experimental: Rats were sedated with O2/CO2 (30/70%) and sacrificed by decapitation. […] The basilar artery (BA) was carefully dissected from the brain in a physiological buffer solution followed by either OC (naïve animals) or directly mounted in a wire myograph (arteries from rats which has undergone surgical procedures). Segments were incubated for 48 hours at 37° C. in humidified 5% CO2/O2 in DMEM supplemented with streptomycin and penicillin with inhibitors or vehicle (DMSO). Culture media was changed after 24 hours.
# For contractility measurements, both incubated BAs (ex vivo) and BAs after surgical procedure (in vivo) were cut into segments and mounted on a pair of metal wires (40 μm) in a myograph bath. The arteries from OC were mounted the same way after 48 hours in media. One wire was attached to a micro-meter screw which allows for fine adjustments of the distance between the wires, controlling the vascular tone.
# The arterial segments were exposed two or three times with 60 mM K^+, by exchanging the buffer with a 60 mM K^+ buffer solution. To maintain equal osmolarity, a proportional amount of Na^+ had been removed from the buffer. An absolute cut-off was set at 2.0 mN K^+max for inclusion of arterial segments from rats that underwent the surgical procedure. Endothelium function was evaluated with the addition of 5-HT (3.10^−7 M) followed by carbachol (10^−5 M). For arteries from the OC the protocol was as followed: first a cumulative concentration-response curve to sarafotoxin 6C (S6c, 10^−14-10^−7 M), followed by a concentration-response curve to endothelin-1 (ET-1, 10^−14-10^−7 M). At peak ET-1 (10^−7 M), the buffer was changed to a Ca^2+-free buffer containing 10^−7 M ET-1 and nimodipine (L-type of voltage dependent Ca^2+ channel entry blocker, 10^−7 M). […] When vasodilation was investigated arteries was precontracted with U46619 (1.10^−7-3.10^−7 M) or K^+ (41 mM) and cumulative concentration-response curves was performed by adding calcitonin gene-related peptide (CGRP, 10^−12-10^−7 M), carbachol (10^−10-10^−5 M) or SNP (10^−11-10^−4 M).
smiles,measurement,setting,value
CC(=O)Nc1cccc(-n2c(=O)n(C3CC3)c(=O)c3c(Nc4ccc(I)cc4F)n(C)c(=O)c(C)c32)c1 [trametinib],Emax following NO donor sodium nitroprusside (SNP),48 h OC,significant differences in the Emax
same,response to CGRP,48 h OC,No differences
same,vasodilation in response to carbachol (10^-10-10^-5 M),"48 h OC, precontracted with U46619 or K+",improved vasodilation
same,endothelium function (10-5 M carbachol on arteries precontracted with 5-HT) vs DMSO,48 h organ culture,significant better endothelium function; also recorded: significant increase
